Data published in patent publication US10981932B2, “Macrocyclic indole derivatives” (Bayer Aktiengesellschaft, priority 2016, dated 2021).
Where two headings read alike, the source gives them in different places.

Key:
A2780 = test: Anti-proliferative effect (CellTiter-Glo, 72 h), A2780; assay type: cell-based; conditions: A2780 cells, median, read-out: IC50 antiproliferation assay A2780 [M] (median)
How it was run: (§1)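 CellTiter-Glo luminescence readout of viability, taken on a time-zero plate at day 0 and on treated plates after 72 h incubation at 37 °C in a humidified incubator. Reagent incubation 10 min before reading.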

SUDHL5 [1] = test: Induction of cytotoxicity (CellTiter-Glo, 5 h), SUDHL5
SUDHL10 [2] = test: Induction of caspase-3/7 activity (Caspase-Glo 3/7), SUDHL10; assay type: cell-based; conditions: caspase-3/7 induction, SUDHL10 cells, 3 h treatment, median
How it was run: (§2)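 Caspase-Glo 3/7 luminescence measured after 3 h compound exposure at 37 °C in SUDHL10 and SUDHL5 cells. EC50 values come from background-corrected signals, with curve bottom set to 1 and plateau set to maximal induction by the reference compound.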

MCL-1 = MCL-1 (Homo sapiens, UniProt Q07820); test: Protein-protein interaction assay MCL-1/Noxa BH3 peptide (MCL-1 assay), TR-FRET; assay type: binding; conditions: MBP-MCL-1 / Noxa BH3-derived peptide, median
Sequence of MCL-1 (Q07820 whole entry): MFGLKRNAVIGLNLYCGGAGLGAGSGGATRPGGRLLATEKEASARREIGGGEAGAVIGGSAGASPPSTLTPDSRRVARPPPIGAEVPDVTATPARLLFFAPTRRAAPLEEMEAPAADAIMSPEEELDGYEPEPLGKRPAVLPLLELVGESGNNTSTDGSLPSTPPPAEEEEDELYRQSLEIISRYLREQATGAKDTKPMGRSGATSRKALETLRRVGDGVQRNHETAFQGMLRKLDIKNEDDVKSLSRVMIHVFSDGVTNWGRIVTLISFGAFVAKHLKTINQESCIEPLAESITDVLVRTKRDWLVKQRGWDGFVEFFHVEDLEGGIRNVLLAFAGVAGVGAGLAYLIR
How it was run: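 MBP-MCL-1 (1 nM final) was preincubated 10 min at 22 °C with compounds (11 concentrations, 0.1 nM–20 μM, duplicates) in Tris pH 7 buffer with NaCl, KF, Tween-20, DTT and BGG. After 1 h at 22 °C in the dark plus overnight at 4 °C, anti-MBP Eu-cryptate/streptavidin-XL665 TR-FRET was read; IC50 came from a 4-parameter fit.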

SUDHL10 [3] = test: Induction of cytotoxicity (CellTiter-Glo, 5 h), SUDHL10
SUDHL5 [4] = test: Induction of caspase-3/7 activity (Caspase-Glo 3/7), SUDHL5; assay type: cell-based; conditions: caspase-3/7 induction, SUDHL5 cells, 3 h treatment, median
How it was run: as §2

MV-4-11 = test: Anti-proliferative effect (CellTiter-Glo, 72 h), MV-4-11; assay type: cell-based; conditions: MV-4-11 cells, median, read-out: IC50 antiproliferation assay MV-4-11 [M] (median)
Procedure: Assessment of the Anti-Proliferative Effect of Compounds in Different Cell Lines
The impact of compounds on the proliferation of different cell lines was assessed using the CellTiter-Glo® Luminescent Cell Viability reagent from Promega (G7573). Of note, SUDHL10 and SUDHL5 (DLBCL), NCI-H929 (Multiple Myeloma), A2780 (ovarian carcinoma) as well as MV-4-11(AML) cells are sensitive to MCL-1 inhibition.
In parallel, cells were plated in a reference (day 0) plate for time zero determination.
Rim wells were excluded. The cells were incubated for 72 h hours in a humidified incubator at 37° C. The day 0 plate was measured by adding 30 μl/well of CTG solution (CellTiter-Glo® Luminescent Cell Viability reagent, Promega G7573) to time zero wells in the reference plate followed by a 10 minutes incubation and luminescence reading at 0.1 ms, using the PHERAstar FS microplate reader (BMG Labtech).
After 72 h incubation, the treated plates were measured in the same way as the day 0 plate mentioned above.

OPM2 = test: Anti-proliferative effect (CellTiter-Glo, 72 h), OPM2; assay type: cell-based; conditions: OPM2 cells, median, read-out: IC50 antiproliferation assay OPM2 [M] (median)
How it was run: as §1

SUDHL5 [5] = test: Anti-proliferative effect (CellTiter-Glo, 72 h), SUDHL5; assay type: cell-based; conditions: SUDHL5 cells, antiproliferation, 72 h incubation, median, read-out: Antiproli SUDHL5 [M] (median)
How it was run: as §1

SUDHL10 [6] = test: Anti-proliferative effect (CellTiter-Glo, 72 h), SUDHL10; assay type: cell-based; conditions: SUDHL10 cells, antiproliferation, 72 h incubation, median, read-out: Antiproli SUDHL10 [M] (median)
How it was run: as §1

[7] = Homo sapiens, SU-DHL10, 5 h, read-out: Cytotox SUDHL10 [M] (median), SUDHL10 cells, cytotoxicity induction, CellTiter-Glo, 5 h, median
[8] = Homo sapiens, SU-DHL-5, 5 h, read-out: Cytotox SUDHL5 [M] (median), SUDHL5 cells, cytotoxicity induction, CellTiter-Glo, 5 h, median
[9] = read-out: Cytotox SUDHL5 [M] (median), SUDHL5 cells, cytotoxicity induction, CellTiter-Glo, 5 h incubation, median
[10] = read-out: Cytotox SUDHL10 [M] (median), SUDHL10 cells, cytotoxicity induction, CellTiter-Glo, 5 h incubation, median

| SMILES | IC50 (A2780; Homo sapiens, A2780, 72 h) [M] | EC50 (SUDHL10 [2]; Homo sapiens, SU-DHL10, 3 h) [µM] | IC50 (MCL-1) [µM] | EC50 (SUDHL5 [4]; Homo sapiens, SU-DHL-5, 3 h) [µM] | IC50 (MV-4-11; Homo sapiens, MV4-11, 72 h) [M] | IC50 (A2780) [M] | EC50 (SUDHL5 [4]) [µM] | IC50 (SUDHL5 [5]) [M] | IC50 (SUDHL10 [6]) [M] | EC50 (SUDHL10 [2]) [µM] | IC50 (SUDHL10 [3]; [7]) [M] | IC50 (OPM2) [M] | IC50 (SUDHL5 [1]; [9]) [M] | IC50 (SUDHL10 [3]; [10]) [M] | other results |
| --- | --- | --- | --- | --- | --- | --- | --- | --- | --- | --- | --- | --- | --- | --- | --- |
| Cc1nn(C)c2c1-c1cccc3c(CCCOc4cccc5ccccc45)c(C(=O)O)n(c13)CCCCN(C)C2 (single isomer, unassigned) [Example 239, (−)-1,3,15-trimethyl-7-[3-(naphthalen-1-yloxy)propyl]-1,10,11,12,13,14,15,16-octahydropyrazolo[4′,3′:4,5][1,7]diazacyclododecino[3,2,1-hi]indole-8-carboxylic Acid] | 2.27e-05 | > 33 | 0.0927 | > 33 | 1.07e-05 | – | – | – | – | – | – | – | – | – | IC50 (SUDHL5 [1]; Homo sapiens, SU-DHL-5, 5 h, read-out: Cytotox SUDHL5 [M] (median), SUDHL5 cells, cytotoxicity induction, CellTiter-Glo, 5 h incubation, median): > 3.3e-05 M; IC50 (SUDHL10 [3]; Homo sapiens, SU-DHL10, 5 h, read-out: Cytotox SUDHL10 [M] (median), SUDHL10 cells, cytotoxicity induction, CellTiter-Glo, 5 h incubation, median): 3.03e-05 M |
| Cc1ccc2c(OCCCc3c(C(=O)O)n4c5c(cccc35)-c3c(nn(C)c3C)COCCCC4)cccc2c1 (single isomer, unassigned; enantiomer 1) [Example 308, 2,3-dimethyl-7-{3-[(6-methylnaphthalen-1-yl)oxy]propyl}-2,10,11,12,13,15-hexahydropyrazolo[4′3′:9,10][1,6]oxazacycloundecino[8,7,6-hi]indole-carboxylic Acid (Enantiomer 1)] | > 3.3e-05 | > 33 | 0.00507 | – | > 3.3e-05 | – | 7.18 | – | – | – | > 3.3e-05 | – | – | – | IC50 (SUDHL5 [1]; read-out: Cytotox SUDHL5 [M] (median), SUDHL5 cells, cytotoxicity induction, CellTiter-Glo, 5 h, median): 5.61e-06 M |
| Cc1c2c(nn1C)COCCCCn1c(C(=O)O)c(CCCOc3cccc4cc(C(F)(F)F)ccc34)c3cccc-2c31 (single isomer, unassigned; enantiomer 1) [Example 311, 2,3-dimethyl-7-(3-{[6-(trifluoromethyl)naphthalen-1-yl]oxy}propyl)-2,10,11,12,13,15-hexahydropyrazolo[4′,3′:9,10][1,6]oxazacycloundecino[8,7,6-hi]indole-8-carboxylic Acid (Enantiomer 1)] | 1.11e-05 | > 33 | 0.543 | > 33 | 1.16e-05 | – | – | – | – | – | 1.49e-05 | – | – | – | IC50 (SUDHL5 [1]; [8]): 2.12e-05 M |
| CCc1nn(C)c2c1-c1cccc3c(CCCOc4cccc5cc(C(F)(F)F)ccc45)c(C(=O)O)n(c13)CCCCOC2 (single isomer, unassigned; enantiomer 1) [Example 314, 3-ethyl-1-methyl-7-(3-{[6-(trifluoromethyl)naphthalen-1-yl]oxy}propyl)-1,10,11,12,13,15-hexahydropyrazolo[4′,3′:9,10][1,6]oxazacycloundecino[8,7,6-hi]indole-8-carboxylic Acid (Enantiomer 1)] | 1.56e-05 | > 33 | 0.0335 | > 33 | 1.35e-05 | – | – | – | – | – | 2.09e-05 | – | – | – | IC50 (SUDHL5 [1]; [8]): 1.56e-05 M |
| CCOCc1nn(C)c2c1-c1cccc3c(CCCOc4cccc5ccccc45)c(C(=O)O)n(c13)CCCCOC2 (single isomer, unassigned; enantiomer 2) [Example 170, 3-(ethoxymethyl)-1-methyl-7-[3-(naphthalen-1-yloxy)propyl]-1,10,11,12,13,15-hexahydropyrazolo[4′,3′:9,10][1,6]oxazacycloundecino[8,7,6-hi]indole-8-carboxylic Acid (Enantiomer 2)] | – | – | 0.00297 | – | – | 2.67e-05 | 5.36 | 1.01e-05 | 4.36e-06 | 15.6 | – | 1.34e-05 | 6.94e-06 | 2e-05 | – |

Further compounds by falling IC50 (MCL-1), results first:

| IC50 (A2780; Homo sapiens, A2780, 72 h) [M] | EC50 (SUDHL10 [2]; Homo sapiens, SU-DHL10, 3 h) [µM] | IC50 (MCL-1) [µM] | EC50 (SUDHL5 [4]; Homo sapiens, SU-DHL-5, 3 h) [µM] | IC50 (MV-4-11; Homo sapiens, MV4-11, 72 h) [M] | IC50 (A2780) [M] | EC50 (SUDHL5 [4]) [µM] | IC50 (SUDHL5 [5]) [M] | IC50 (SUDHL10 [6]) [M] | EC50 (SUDHL10 [2]) [µM] | SMILES | IC50 (SUDHL10 [3]; [7]) [M] | IC50 (OPM2) [M] | IC50 (SUDHL5 [1]; [9]) [M] | IC50 (SUDHL10 [3]; [10]) [M] | other results |
| --- | --- | --- | --- | --- | --- | --- | --- | --- | --- | --- | --- | --- | --- | --- | --- |
| – | – | 0.286 | – | – | 1.02e-05 | – | – | – | – | CCc1nn(C)c2c1-c1cccc3c(CCCOc4cccc5cc(Cl)ccc45)c(C(=O)O)n(c13)CCCCOC2 (single isomer, unassigned; enantiomer 2) [Example 306, 7-{3-[(6-chloronaphthalen-1-yl)oxypropyl}-3-ethyl-1-methyl-1,10,11,12,13,15-hexahydropyrazolo[4′,3′:9,10](1,6]oxazacycloundecino[8,7,6-hi]indole-8-carboxylic Acid (Enantiomer 2)] | – | – | – | – | IC50 (MV-4-11): 1.5e-05 M |
| – | – | 0.022 | – | – | 1.05e-05 | – | – | – | – | Cc1c2c(nn1C)COCCCCn1c(C(=O)O)c(CCCOc3cccc4cc(C(F)(F)F)ccc34)c3cccc-2c31 (single isomer, unassigned; enantiomer 2) [Example 312, 2,3-dimethyl-7-(3-{[6-(trifluoromethyl)naphthalen-1-yl]oxy}propyl)-2,10,11,12,13,15-hexahydropyrazolo[4′,3′:9,10][1,6]oxazacycloundecino[8,7,6-hi]indole-8-carboxylic Acid (Enantiomer 2)] | – | – | – | – | IC50 (MV-4-11): 1.28e-05 M |
| > 3.3e-05 | – | 0.0137 | – | – | – | 16.9 | 3.25e-06 | 1.18e-05 | 19.9 | CN1CCCn2c(C(=O)O)c(CCCOc3cccc4ccccc34)c3cccc(c32)-c2c(COc3ccc(-n4ccccc4=O)cc3)nn(C)c2C1 (single isomer, unassigned; enantiomer 2) [Example 1-116, 7,9-Dimethyl-1-[3-(1-naphthyloxy)propyl]-11-{[4-(2-oxopyridin-1(2H)-yl)phenoxy]methyl}-4,5,6,7,8,9-hexahydropyrazolo[3′,4′:7,8][1,5]diazecino[9,10,1-hi]indole-2-carboxylic Acid (Enantiomer 2)] | – | 2.96e-05 | 1.32e-05 | > 3.3e-05 | – |
| – | – | 0.00536 | – | 1.36e-05 | > 3.3e-05 | – | – | – | – | CCc1nn(C)c2c1-c1cccc3c(CCCOc4cccc5cc(Cl)ccc45)c(C(=O)O)n(c13)CCCCOC2 (single isomer, unassigned; enantiomer 1) [Example 305, 7-{3-[(6-chloronaphthalen-1-yl)oxy]propyl}-3-ethyl-1-methyl-1,10,11,12,13,15-hexahydropyrazolo[4′,3′:9,10][1,6]oxazacycloundecino[8,7,6-hi]indole-8-carboxylic Acid (Enantiomer 1)] | – | – | – | – | – |
| – | – | 0.00314 | – | – | 1.14e-05 | 4.11 | 2.28e-06 | 1.01e-05 | 7.36 | Cn1nc(COc2ccc(N3CCOCC3)cc2)c2c1COCCCCn1c(C(=O)O)c(CCCOc3cccc4ccccc34)c3cccc-2c31 (single isomer, unassigned; enantiomer 2) [Example 123, 1-methyl-3-{[4-(morpholin-4-yl)phenoxy]methyl}-7-[3-(naphthalen-1-yloxy)propyl]-1,10,11,12,13,15-hexahydropyrazolo[4′,3′:9,10][1,6]oxazacycloundecino[8,7,6-hi]indole-8-carboxylic Acid (Enantiomer 2)] | – | 4.32e-06 | 3.13e-06 | 2.1e-05 | – |
